Test results taken from patent US20090149417A1, “Methods and compositions for the treatment of cancer using benzopyrone-type PARP inhibitors” (priority 2007, published 2009).

Key:
Type in all cases: cell-based, human
[1] = test system: Colo375FG metastatic pancreatic adenocarcinoma cells; test: TUNEL apoptosis assay (flow cytometry)
Procedure: Cells are labeled for apoptosis with the “In Situ Cell Death Detection Kit, Fluorescein” (Roche Diagnostics Corporation, Roche Applied Science, Indianapolis, Ind.). Briefly, fixed cells are centrifuged and washed once in phosphate-buffered saline (PBS) containing 1% bovine serum albumin (BSA), then resuspended in 2 ml permeabilization buffer (0.1% Triton X-100 and 0.1% sodium citrate in PBS) for 25 min at room temperature and washed twice in 0.2 ml PBS/1% BSA. The cells are resuspended in 50 μl TUNEL reaction mixture (TdT enzyme and labeling solution) and incubated for 60 min at 37° C. in a humidified dark atmosphere in an incubator. The labeled cells are washed once in PBS/1% BSA, then resuspended in 0.5 ml ice-cold PBS containing 1 μg/ml 4′,6-diamidino-2-phenylindole (DAPI) for at least 30 min. All cell samples are analyzed with a BD LSR II (BD Biosciences, San Jose, Calif.).
The cells are labeled for apoptosis with the “In Situ Cell Death Detection Kit, Fluorescein” (Roche Diagnostics Corporation, Roche Applied Science, Indianapolis, Ind.). Briefly, fixed cells are centrifuged and washed once in phosphate-buffered saline (PBS) containing 1% bovine serum albumin (BSA), then resuspended in 2 ml permeabilization buffer (0.1% Triton X-100 and 0.1% sodium citrate in PBS) for 25 minutes at room temperature and washed twice in 0.2 ml PBS/1% BSA. The cells are resuspended in 50 μl TUNEL reaction mixture (TdT enzyme and labeling solution) and incubated for 60 min at 37° C. in a humidified dark atmosphere in an incubator. The labeled cells are washed once in PBS/1% BSA, then resuspended in 0.5 ml ice-cold PBS containing 1 μg/ml 4,6-diamidino-2-phenylindole (DAPI) for at least 30 min. All cell samples are analyzed with a BD LSR II (BD Biosciences, San Jose, Calif.).

[2] = test system: Colo375FG metastatic pancreatic adenocarcinoma cells; test: Bromodeoxyuridine (BrdU) labeling assay (flow cytometry); conditions: Compound IIIc 12.5 mM; one value printed beside OxaliPt 0 10 20 mM, OxaliPt level not assignable
Procedure: 50 μl of BrdU (Sigma Chemical Co., St. Louis, Mo.) stock solution (1 mM) is added to give 10 μM BrdU final concentration. The cells are incubated for 30 min at 37° C. and fixed in ice-cold 70% ethanol and stored in a cold room (4° C.) overnight. Fixed cells are centrifuged and washed once in 2 ml PBS, then resuspended in 0.7 ml of denaturation solution (0.2 mg/ml pepsin in 2 N HCl) for 15 min at 37° C. in the dark and suspended with 1.04 ml 1M Tris buffer (Trizma base, Sigma Chemical Co.) to terminate the hydrolysis and washed in 2 ml PBS.
(§1) Cells are resuspended in 100-μl anti-BrdU antibody (DakoCytomation, Carpinteria, Calif.) with 1:100 dilution in TBFP permeable buffer (0.5% Tween-20, 1% bovine serum albumin and 1% fetal bovine serum in PBS) and incubated for 25 min at room temperature in the dark and washed in 2 ml PBS. The primary antibody-labeled cells are resuspended in 100 μl Alexa Fluor F(ab′)2 fragment of goat anti-mouse IgG (H+L) (2 mg/mL) (Molecular Probes, Eugene, Oreg.) with 1:200 dilution in TBFP permeable buffer and incubated for 25 min at room temperature in the dark and washed in 2 ml PBS, then resuspended in 0.5 ml ice-cold PBS containing 1 μg/ml 4′,6-diamidino-2-phenylindole (DAPI) for at least 30 min. All cell samples are analyzed with a BD LSR II (BD Biosciences, San Jose, Calif.).
as §1, with “50 μl of BrdU (Sigma Chemical Co., St. Louis, Mo.) stock solution (1 mM) is added to give 10 μM BrdU final concentration. The cells are incubated for 30 min at 37 °C and fixed in ice-cold 70% ethanol and stored in a cold room (4 °C) overnight. Fixed cells are centrifuged and washed once in 2 ml PBS, then resuspended in 0.7 ml of denaturation solution (0.2 mg/ml pepsin in 2 N HCl) for 15 min at 37° C. in the dark and suspended with 1.04 ml 1M Tris buffer (Trizma base, Sigma Chemical Co.) and washed in 2 ml PBS. Then cells” for “Cells”

[3] = test system: Colo375FG metastatic pancreatic adenocarcinoma cells; test: Live cell number (Coulter counter, methylene blue, PI exclusion)
Procedure: Colo375FG metastatic pancreatic adenocarcinoma cells are cultured in Dulbecco Modified Eagle Medium with 10% fetal bovine serum. Cells are plated at 10^5 per P100 or at 10^4 per P60 (for assays requiring up to 3 days of culture), in the presence of different concentrations of BiPar compounds and other agents, or DMSO control. Following treatment, the number of attached cells is measured using Coulter counter, and by staining with 1% methylene blue. Methylene blue is dissolved in 50%-50% mixture of Methanol and water. Cells are plated in 24- or 96-well plates and treated with compounds as indicated, then media are aspirated, cells are washed with PBS, fixed in methanol for 5-10 min, washed and the plates are allowed to dry completely. Methylene blue solution is added to wells and plates are incubated for 5 min. Staining solution is removed and plates are washed with dH2O. After plates are completely dry, a small amount of 1N HCl is added to each well to extract the methylene blue. The OD readout at 600 nm and a calibration curve are used to determine cell number.
IIIg (6-nitro-5-iodo-benzopyrone) is dissolved directly from dry powder to 10 mM stock solution in DMSO for each separate experiment, and then the entire volume of the stock solution is used to prepare working concentrations in cell culture medium to avoid any possibility of precipitation and the corresponding loss of compound. Control experiments are carried out with the matching volume/concentration of the vehicle (DMSO).
(§2) After the addition of drugs and incubation, cells are trypsinized and aliquots of the samples are taken for counting and PI (Propidium Iodide) exclusion assay. One part of the cells is centrifuged and resuspended in 0.5 ml ice-cold PBS containing 5 μg/ml of PI. The other part of the cells is fixed in ice-cold 70% ethanol and stored in a freezer overnight. For cell cycle analysis, cells are stained with propidium iodide (PI) by standard procedures. Cellular DNA content is determined by flow cytometry using BD LSRII FACS, and the percentages of cells in G1, S or G2/M are determined using ModFit software.
Colo375FG metastatic pancreatic adenocarcinoma cells are obtained from ATCC and cultured in Dulbecco Modified Eagle Medium with 10% fetal bovine serum. Cells are plated at 10^5 cells per P100 cell culture dish or at 10^4 cells per P60 cell culture dish in the presence of different concentrations compounds or DMSO control. Following treatment, the number of attached cells is measured using Coulter counter, and by staining with 1% methylene blue. Methylene blue is dissolved in 50%-50% mixture of Methanol and water. Cells are plated in 24- or 96-well plates and treated as planned, media are aspirated, cells are washed with PBS, fixed in methanol for 5-10 min, methanol is aspirated and plates are allowed to dry completely. Methylene blue solution is added to wells and plates are incubated for 5 min. Staining solution is removed and plates are washed with dH2O until washes are no longer blue. After plates are completely dry, a small amount of 1N HCl is added to each well to extract the methylene blue. The OD readout at 600 nm and a calibration curve are used to determine cell number.
Compounds of the invention are dissolved directly from dry powder to 10 mM stock solution in DMSO for each separate experiment. Control experiments are carried out with the matching volume/concentration of the vehicle (DMSO). In these controls, the cells show no changes in their growth or cell cycle distribution.
as §2, with “ug/ml” for “μg/ml”, “Cellular DNA content is determined by flow cytometry using BD LSRII FACS, and the percentages of cells in G1, S or G2/M are determined using ModFit software.” left out

[4] = Compound IIIc 12.5 mM, OxaliPt 0 mM
[5] = combination: Compound IIIc 12.5 mM + OxaliPt 10 mM
[6] = combination: Compound IIIc 12.5 mM + OxaliPt 20 mM

O=c1ccc2c(CCCCN3CC=C(c4ccccc4)CC3)c([N+](=O)[O-])ccc2o1 [IIIc]
Dead cells TUNEL (%) [1, 4]: 2.7% | Dead cells TUNEL (%) [1, 5]: 16.1% | Dead cells TUNEL (%) [1, 6]: 28.2% | Cells in S-phase of cell cycle (% BrdU+) [2]: 73.87% | Live Cell (%) [3, 4]: 54% | Live Cell (%) [3, 5]: 33% | Live Cell (%) [3, 6]: 25%
